# What was measured:
# [1] = test system: rat cornea wound; assay: cornea wound electric current and ion flux measured with vibrating probe; conditions: for cornea wound electric signal: 10 mM
# Protocol: In order to understand corneal wound healing, the spatiotemporal dynamics of rat cornea wound electric currents and ion flux using a vibrating probe were characterized. In particular, measurements of deeper wounds of approximately 100 microns in depth, penetrating the stroma, were analyzed. For both shallow and deep wounds, electric current and ion flux were maximized at the wound edge, minimized at the wound center, and reduced to normal (unwounded) values at a small distance outside the wound. Wound electric current was outward (i.e., outward transient outward flux of potassium which diminished rapidly and therefore appeared to be leakage). Small fluxes of calcium and sodium were also observed. The main ion flux appeared to be a large influx of chloride ions at the wound edge. Time lapse measurements of electric current in the hours after wounding indicate that the wound electric signal was long-lasting and appears to be actively-regulated. The wound electric signal increased rapidly until approximately 40 minutes after wounding and was maintained at a high level for several hours. FIGS. 9 and 10 show time lapse data for both a shallow (normal epithelial) wound and a deep (stromal) wound. In this regard, electric signals for a shallow depth wound and a deep wound were compared.
# Furthermore, the epithelial wounds were manually made using a biopsy punch. To replicate a more traumatic cornea wound that penetrates both the epithelium and stroma, a Nidek EC-5000 excimer laser was used. The laser settings to obtain circular wounds were 2 mm in diameter and approximately 100 μm deep. We confirmed wound depth using optical coherence tomography (OCT). […] The laser application was performed by first chilling eyes in a saline ice bath prior to wounding, and then applying the laser in 10 second bursts, with 5 second rest in between to minimize laser damage outside the wound. […]
# Wounds 3.5 mm in diameter that normally took 48 hours or more to completely heal were healed in 30 hours in the presence of these therapeutics. To ensure that the aminophylline has the same effect on deep wounds as shallow epithelial wounds, wound electric fields were measured using the vibrating probe with and without the presence of 1 and 10 mM aminophylline. […]
# The effects of two distinct rehydrated collagen membranes (with a nominal thickness of 100 μm) on cornea wound electric signal were characterized. […] As the probe was moved away from the source of electric signal, the current detected fell exponentially.
# The effect of physical presence of collagen membrane and probe distance from wound edge on the electric signal was tested. The probe was placed in measuring position as close as possible to the wound edge with the collagen membrane, and the electric signal was recorded. […]
# [2] = test system: rat cornea wound; assay: cornea wound healing in the presence of therapeutics; conditions: for time to heal: wounds 3.5 mm in diameter that normally took 48 hours or more
# Protocol: Furthermore, the epithelial wounds were manually made using a biopsy punch. To replicate a more traumatic cornea wound that penetrates both the epithelium and stroma, a Nidek EC-5000 excimer laser was used. The laser settings to obtain circular wounds were 2 mm in diameter and approximately 100 μm deep. We confirmed wound depth using optical coherence tomography (OCT). […] The laser application was performed by first chilling eyes in a saline ice bath prior to wounding, and then applying the laser in 10 second bursts, with 5 second rest in between to minimize laser damage outside the wound. […] The dynamic time course of the electric signal change in the hours after wounding was also similar to that of shallower wounds (see FIG. 9). Normal epithelial wounds 2 mm in diameter heal almost completely in 48 hours. Deep laser wounds took longer to heal than shallow epithelial wounds, but did heal 100% by day 8 (see FIG. 10).
# Wounds 3.5 mm in diameter that normally took 48 hours or more to completely heal were healed in 30 hours in the presence of these therapeutics. To ensure that the aminophylline has the same effect on deep wounds as shallow epithelial wounds, wound electric fields were measured using the vibrating probe with and without the presence of 1 and 10 mM aminophylline. FIG. 11 illustrates the presence of aminophylline in the wound.
# FIG. 12 illustrates wound healing of a deep wound (100 μm) without and with the presence of 1 mM aminophylline as function of time. In this regard, at 500, deep wound healing with and without the presence of aminophylline are shown. At 520, an OCT image of the control wound is shown. At 540, an OCT image with the presence of aminophylline in the wound is shown.
# Furthermore, FIG. 13 illustrates the percentage of wound healing as a function of time for corneas treated with the bioelectric modulator aminophylline (1 mM).
# [3] = cited from earlier work
Structure (SMILES),chloride flux at the wound [1],cornea wound electric signal [1],"wound electric field ([1]; deep wounds, 1 and 10 mM, FIG. 11)",cornea wound healing [2],"wound healing of a deep wound (OCT) ([2]; deep wound 100 μm, 1 mM, FIG. 12)",time to heal [2],log partition (log P) coefficient value [3]
Cn1c(=O)c2[nH]cnc2n(C)c1=O [aminophylline],significantly increases,significantly increase,increase in the wound electric field,significantly enhanced,faster than a control,30 h,−3.03
O=C1O[C@H]([C@@H](O)CO)C(O)=C1O [ascorbic acid],–,significantly increase,–,significantly enhanced,–,30 h,–

# From US20190201578A1, “Biomaterial Implant” (The Johns Hopkins University, priority 2017, published 2019)
